The source of these data is patent US20040115483A1, “Crystal modification of a cyclic depsipeptide having improved strength” (priority 2001, published 2004).

For data set [1], the system named is Haemonchus Contortus. Briefly: Egg reduction test (eggs per gram of faeces) in experimentally infected sheep. The note with it: oral (gelatin capsule), 1 sheep, EPG. It is filed as in vivo. The procedure: Effectiveness of Forms I-IV of the Depsipeptide of the Formula (I) at Different Oral Dosages Against Haemonchus Contortus in Sheep
Sheep (Merino or Blackhead breed, 25-35 kg of body weight) were experimentally infected with 5000H contortus L3 larvae and treated with the formulated test substance at the end of the prepatency time of the parasite. The test compounds were administered orally (gelatin capsule). The anthelmintic effectiveness of the test substances was measured as a function of reduction of the number of eggs per gram of faeces. To this end, fresh faeces from the test animals were processed according to the McMaster method, modified according to Wetzel, and the number of eggs was determined. The number of eggs was determined at regular intervals before and after the treatment. The anthelmintic effectiveness was defined as follows: 3=>95%, 2=75-95%, 1=50-75% and 0=<50% reduction in eggs (cf. also G. von Samson-Himmelstjerna, A. Harder, T. Schnieder, J. Kalbe, N. Mencke (2000) In vivo activities of the new anthelmintic depsipeptide PF1022A. Parasitol. Res. 86:194-199).

Data set [2] has as its system Cooperia Oncophora. Briefly: Slaughter test (reduction of number of worms in small intestine) in experimentally infected cattle. Type of data set: in vivo. The following applies: oral, 3 cattle, slaughter 10 days after treatment. As to the method:
Effectiveness of Forms I and IV of the Depsipeptide of the Formula (I) at Different Oral Dosages Against Cooperia Oncophora in Cattle
Cattle (breed: Hostein Friesean, species: Bos taurus, calves or young cattle of up to about 200 kg) were experimentally infected with 15,000 C. oncophora L3 larvae. After successful infection (prepatency time about 18-21 days) the number of eggs per gram of faeces was determined 3 times within one week. The animals were then (at day 0=day of the treatment) treated orally (gelatin capsule) or subcutaneously with the formulated test substance. The anthelmintic effectiveness of the test substances was determined as a function of the reduction of the number of worms (in % of the untreated control) in the small intestine after the animals had been slaughtered (10 days after the treatment) (cf. also G. von Samson-Himmelstjerna, A. Harder, T. Schnieder, J. Kalbe, N. Mencke (2000) In vivo activities of the new anthelmintic depsipeptide PF1022A. Parasitol. Res. 86: 194-199.).
The effectiveness in the slaughter experiment is stated in % reduction in worms, compared to the untreated control.

Data set [3] is described as follows: Thermodynamic stability of the crystal forms. It is filed as physicochemical. The note with it: comparison of forms I-IV.
Data set [4] can be described thus: Bioavailability of the crystal forms. Type of data set: in vivo. The following applies: comparison of forms I-IV.

Molecules are shown by their SMILES.

Regarding `CC(C)C[C@H]1C(=O)O[C@H](Cc2ccc(N3CCOCC3)cc2)C(=O)N(C)[C@@H](CC(C)C)C(=O)O[C@H](C)C(=O)N(C)[C@@H](CC(C)C)C(=O)O[C@H](Cc2ccc(N3CCOCC3)cc2)C(=O)N(C)[C@@H](CC(C)C)C(=O)O[C@H](C)C(=O)N1C` [Form III], the “Effectiveness (reduction of eggs per gram of faeces)” value in data set [1] (dosage 0.1 mg/kg, listed as III) was 1 (1 Sheep, EPG) (1 = effectiveness 50% to 75%); in data set [1] (dosage 0.5 mg/kg, listed as III), 1 (1 Sheep, EPG) (1 = effectiveness 50% to 75%).

Consider `CC(C)C[C@H]1C(=O)O[C@H](Cc2ccc(N3CCOCC3)cc2)C(=O)N(C)[C@@H](CC(C)C)C(=O)O[C@H](C)C(=O)N(C)[C@@H](CC(C)C)C(=O)O[C@H](Cc2ccc(N3CCOCC3)cc2)C(=O)N(C)[C@@H](CC(C)C)C(=O)O[C@H](C)C(=O)N1C` [Form IV], for which the “Effectiveness (reduction of eggs per gram of faeces)” value in data set [1] (dosage 0.1 mg/kg, listed as IV) was 0 (1 Sheep, EPG) (0 = effectiveness ≦ 50 %); in data set [1] (dosage 0.5 mg/kg, listed as IV), 0 (1 Sheep, EPG) (0 = effectiveness ≦ 50 %); in data set [1] (dosage 1.0 mg/kg) it was 3 (1 Sheep, EPG) (3 = effectiveness > 95%). In addition, the “Effectiveness (% reduction in worms, compared to the untreated control)” value is reported as 43.09% (3 cattle, slaughter test) in data set [2] (dosage 1.0 mg/kg, listed as IV) and 99.15% (3 cattle, slaughter test) in data set [2] (dosage 2.0 mg/kg). In addition, in data set [3] (listed as form IV), the “Thermodynamic stability (rank among the four forms)” value is reported as “thermodynamically fourth most stable form”.

Regarding `CC(C)C[C@H]1C(=O)O[C@H](Cc2ccc(N3CCOCC3)cc2)C(=O)N(C)[C@@H](CC(C)C)C(=O)O[C@H](C)C(=O)N(C)[C@@H](CC(C)C)C(=O)O[C@H](Cc2ccc(N3CCOCC3)cc2)C(=O)N(C)[C@@H](CC(C)C)C(=O)O[C@H](C)C(=O)N1C` [Form I], the “Effectiveness (reduction of eggs per gram of faeces)” value in data set [1] (dosage 0.1 mg/kg, listed as I) is on record as 3 (1 Sheep, EPG) (3 = effectiveness > 95%); in data set [1] (dosage 0.5 mg/kg, listed as I) it was 3 (1 Sheep, EPG) (3 = effectiveness > 95%). Further, in data set [4], the “Bioavailability (rank among the forms)” value was “greatest bioavailability”. For the same molecule, in data set [2] (dosage 1.0 mg/kg, listed as I), the “Effectiveness (% reduction in worms, compared to the untreated control)” value was 93.81% (3 cattle, slaughter test). Also, the “Thermodynamic stability (rank among the four forms)” value in data set [3] (listed as form I) is given as “thermodynamically most stable form”.

For `CC(C)C[C@H]1C(=O)O[C@H](Cc2ccc(N3CCOCC3)cc2)C(=O)N(C)[C@@H](CC(C)C)C(=O)O[C@H](C)C(=O)N(C)[C@@H](CC(C)C)C(=O)O[C@H](Cc2ccc(N3CCOCC3)cc2)C(=O)N(C)[C@@H](CC(C)C)C(=O)O[C@H](C)C(=O)N1C` [Form II], the “Effectiveness (reduction of eggs per gram of faeces)” value in data set [1] (dosage 0.1 mg/kg, listed as II) is listed as 0 (1 Sheep, EPG) (0 = effectiveness ≦ 50 %); in data set [1] (dosage 0.5 mg/kg, listed as II) it was 0 (1 Sheep, EPG) (0 = effectiveness ≦ 50 %).
